The record followed here is BindingDB's records for doi:10.7270/Q2W66J6B (Sanford-Burnham Center For Chemical Genomics, 2009).

For orientation: IC50 means the point on the concentration scale where inhibition reaches its midpoint. A low value points to inhibition by little substance.

This assay deals with T1, Dual specificity protein phosphatase 6 (Rattus norvegicus, UniProt Q64346).
T1 sequence (Q64346 whole entry): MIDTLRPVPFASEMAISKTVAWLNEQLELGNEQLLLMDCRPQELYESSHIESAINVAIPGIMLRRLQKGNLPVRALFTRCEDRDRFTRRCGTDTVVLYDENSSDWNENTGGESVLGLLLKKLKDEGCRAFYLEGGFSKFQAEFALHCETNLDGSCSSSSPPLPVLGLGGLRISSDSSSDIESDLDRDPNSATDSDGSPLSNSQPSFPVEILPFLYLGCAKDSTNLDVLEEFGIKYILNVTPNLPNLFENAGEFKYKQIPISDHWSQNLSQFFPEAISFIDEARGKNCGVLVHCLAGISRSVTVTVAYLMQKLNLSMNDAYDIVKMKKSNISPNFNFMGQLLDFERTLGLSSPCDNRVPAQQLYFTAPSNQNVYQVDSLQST
As to the kind of experiment: MKP-3 phosphatase inhibitors, primary screen, biochemical, rat enzyme, in vitro (AID 425).
For `CCOc1cc(CN=Nc2nc(O)c(CC(=O)O)s2)ccc1OCc1ccc(Cl)cc1Cl` [2-[2-[(N''E)-N''-[4-(2,4-dichlorobenzyl)oxy-3-ethoxy-benzylidene]hydrazino]-4-keto-2-thiazolin-5-yl]acetic acid], it took 25.6 µM to reach half-maximal inhibition (IC50).

For `Cc1ccc(NC(=O)CN2C(=O)C(=NNC(=O)c3cc([N+](=O)[O-])ccc3O)c3ccccc32)cc1`, the IC50 was determined as 31 µM.

The molecule `COC1=CC=CC(/C=N/NC(=O)c2cc3cc([N+](=O)[O-])ccc3s2)C1=O` (stereo unspecified) [SMR000237814] gave a half-inhibitory concentration (IC50) of 116 µM.

Turning to `O=NCc1cccn1-c1cccc(C(=O)O)c1` [3-[2-(hydroximinomethyl)pyrrol-1-yl]benzoic acid], the IC50 worked out at 10 µM. This IC50 lies about 12-fold lower than the previous one.

The molecule `Cc1cc(=O)oc2cc(OCC(=O)N/N=C/C3C=C([N+](=O)[O-])C=CC3=O)ccc12` (stereo unspecified) [MLS000588734] gave an IC50 of 24 µM.

Molecule `CCN(CC)CCCN1C(=O)C(=O)C(C(=O)c2ccccc2)C1c1ccccn1` (stereo unspecified) [(4E)-1-[3-(diethylamino)propyl]-4-[hydroxy(phenyl)methylidene]-5-(2-pyridinyl)pyrrolidine-2,3-dione] displayed an IC50 of 100 µM.
